Drawing on ChEMBL document CHEMBL5143653, “4'-Nitrobiphenyl thioglucoside as the Smallest, fluorescent photosensitizer with cancer targeting ligand” (Bioorg Med Chem, 2022), this text covers IC50, Activity and Drug uptake for 7 molecules.

Data set [1] can be described thus: Photodynamic cytotoxicity in human PC-3 cells assessed as reduction in cell viability under 405 nm irradiation exposure measured after 2 hrs by MTT assay. The class given is toxicity, cell-based.
Data set [2] deals with PC-3. Kind of data set: Dark toxicity in human PC-3 cells assessed as reduction in cell viability at 300 uM incubated under dark for 2 hrs by MTT assay. The class given is cell-based. Particulars: pc-3, 2 h; call rule not given here.
Data set [3] can be described thus: Drug uptake in human PC-3 cells at 150 uM incubated under irradiation at 405 nm by confocal laser scan fluorescence microscopy. Particulars: pc-3, 150 µM. The class given is ADME, cell-based.
The test system of data set [4] is PC-3. The data set is described as follows: Dark toxicity in human PC-3 cells assessed as reduction in cell viability at 150 uM incubated under dark for 2 hrs by MTT assay. It is filed as cell-based. Particulars: pc-3, 2 h. In general terms: Tetrazolium dyes change colour on reduction, which living cells bring about.
Data set [5] in a line: Drug uptake in human PC-3 cells at 150 uM incubated under irradiation at 405 nm in presence of up top 25 mM glucose by confocal laser scan fluorescence microscopy. The class given is ADME, cell-based. Particulars: pc-3, 150 µM.
Data set [6] can be described thus: Drug uptake in human PC-3 cells at 150 uM incubated under irradiation at 405 nm in presence of cytochalasin B by confocal laser scan fluorescence microscopy. It is filed as ADME, cell-based. Particulars: pc-3, 150 µM.

The term IC50 denotes the point on the concentration scale where inhibition reaches its midpoint. Take `O=[N+]([O-])c1ccc(-c2ccc(S[C@@H]3O[C@H](CO)[C@@H](O)[C@H](O)[C@H]3O)cc2)cc1`: the IC50 at 2 h in data set [1] worked out at 250 µM. Also, the Activity result with PC-3 [2] and in the data set on PC-3 [4] was “Non-Toxic” in each case. Besides, the Drug uptake result in data set [3] is “Active”.

In the case of `O=[N+]([O-])c1ccc(-c2ccc(OCCCO[C@@H]3O[C@H](CO)[C@@H](O)[C@H](O)[C@H]3O)cc2)cc1`, in the data set on PC-3 [4], the Activity result is “Toxic”.

As for `O=[N+]([O-])c1ccc(-c2ccc(S[C@@H]3O[C@H](CO)[C@H](O)[C@H](O)[C@H]3O)cc2)cc1`, in data set [1], the IC50 at 2 h stood at 120 µM. For the same molecule, the Drug uptake result in data set [5], in data set [3] and in data set [6] was “Active” each time. Moreover, the Activity entry in the data set on PC-3 [2] was “Toxic”.

For the molecule `O=[N+]([O-])c1ccc(-c2ccc(SCCCO[C@@H]3O[C@H](CO)[C@@H](O)[C@H](O)[C@H]3O)cc2)cc1`, in the data set on PC-3 [4], the Activity result is “Toxic”.

For the molecule `O=[N+]([O-])c1ccc(-c2ccc(O[C@@H]3O[C@H](CO)[C@@H](O)[C@H](O)[C@H]3O)cc2)cc1`, the Activity result with PC-3 [4] is “Non-Toxic”.

Consider `O=[N+]([O-])c1ccc(-c2ccc(S[C@H]3O[C@H](CO)[C@@H](O)[C@H](O)[C@@H]3O)cc2)cc1`, for which the IC50 at 2 h in data set [1] was determined as 150 µM. The Activity entry in the data set on PC-3 [2] is “Toxic”. The Drug uptake result in data set [3] is “Active”.

As for `O=[N+]([O-])c1ccc(-c2ccc(OCCCS[C@@H]3O[C@H](CO)[C@@H](O)[C@H](O)[C@H]3O)cc2)cc1`, the Activity entry in the data set with PC-3 [4] is “Toxic”.
